Measured values taken from article PMC11945486, “TAS1R2/TAS1R3 Single-Nucleotide Polymorphisms Affect Sweet Taste Receptor Activation by Sweeteners: The SWEET Project” (Nutrients, 2025).
No end group written: not given here.

T1: human TAS1R2-I595T/TAS1R3-WT (Homo sapiens, UniProt Q7RTX0+Q8TE23, I595T)
T1 construct: expressed in transfected cells; host or cells: HEK293T-Gα16gust44
T1 sequence (Q8TE23 20-839 I595T): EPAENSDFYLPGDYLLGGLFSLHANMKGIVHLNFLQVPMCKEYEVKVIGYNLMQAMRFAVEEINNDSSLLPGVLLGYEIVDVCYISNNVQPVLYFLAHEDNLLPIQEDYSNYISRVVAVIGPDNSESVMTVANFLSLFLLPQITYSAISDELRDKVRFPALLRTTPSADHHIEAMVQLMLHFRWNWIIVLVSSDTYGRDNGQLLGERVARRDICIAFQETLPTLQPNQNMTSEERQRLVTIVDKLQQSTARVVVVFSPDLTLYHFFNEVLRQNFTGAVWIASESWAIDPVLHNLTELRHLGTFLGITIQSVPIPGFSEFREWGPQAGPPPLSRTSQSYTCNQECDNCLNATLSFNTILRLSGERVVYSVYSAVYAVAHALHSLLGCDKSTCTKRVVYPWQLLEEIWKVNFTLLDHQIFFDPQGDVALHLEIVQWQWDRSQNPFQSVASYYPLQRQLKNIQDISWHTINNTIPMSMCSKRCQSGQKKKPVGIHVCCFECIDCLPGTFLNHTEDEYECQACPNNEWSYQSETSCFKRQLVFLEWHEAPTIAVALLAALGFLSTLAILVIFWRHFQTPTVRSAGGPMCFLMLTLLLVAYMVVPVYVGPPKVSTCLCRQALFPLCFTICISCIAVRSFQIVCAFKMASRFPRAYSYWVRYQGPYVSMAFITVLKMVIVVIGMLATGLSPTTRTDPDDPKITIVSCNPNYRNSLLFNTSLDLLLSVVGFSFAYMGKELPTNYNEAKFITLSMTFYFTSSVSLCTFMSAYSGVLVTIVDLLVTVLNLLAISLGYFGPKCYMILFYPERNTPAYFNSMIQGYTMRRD
T1 sequence (Q7RTX0 21-852): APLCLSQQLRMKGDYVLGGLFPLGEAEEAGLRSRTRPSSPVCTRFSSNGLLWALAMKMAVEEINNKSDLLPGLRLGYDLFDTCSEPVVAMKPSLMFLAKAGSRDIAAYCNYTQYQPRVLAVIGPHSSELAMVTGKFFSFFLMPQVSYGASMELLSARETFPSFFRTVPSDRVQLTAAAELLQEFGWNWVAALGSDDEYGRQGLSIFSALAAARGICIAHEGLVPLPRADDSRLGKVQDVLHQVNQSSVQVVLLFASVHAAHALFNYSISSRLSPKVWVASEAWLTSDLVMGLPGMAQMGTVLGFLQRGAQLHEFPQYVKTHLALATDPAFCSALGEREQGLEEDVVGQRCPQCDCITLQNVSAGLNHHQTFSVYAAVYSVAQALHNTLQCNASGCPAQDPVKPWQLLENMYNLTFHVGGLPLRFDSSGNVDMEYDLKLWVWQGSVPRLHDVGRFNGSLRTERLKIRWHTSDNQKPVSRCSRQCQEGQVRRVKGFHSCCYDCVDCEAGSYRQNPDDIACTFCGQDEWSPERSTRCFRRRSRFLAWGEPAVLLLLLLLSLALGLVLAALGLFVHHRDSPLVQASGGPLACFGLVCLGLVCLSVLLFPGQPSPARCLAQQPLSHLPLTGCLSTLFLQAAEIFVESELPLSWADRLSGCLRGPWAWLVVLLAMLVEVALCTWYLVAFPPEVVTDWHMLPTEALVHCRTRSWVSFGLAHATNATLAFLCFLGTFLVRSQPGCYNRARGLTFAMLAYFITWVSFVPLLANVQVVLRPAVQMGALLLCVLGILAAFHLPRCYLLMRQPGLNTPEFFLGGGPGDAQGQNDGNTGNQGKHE

B1: thaumatin (protein)
chain: ATFEIVNRCSYTVWAAASKGDAALDAGGRQLNSGESWTINVEPGTKGGKIWARTDCYFDDSGSGICKTGDCGGLLRCKRFGRPPTTLAEFSLNQYGKDYIDISNIKGFNVPMDFSPTTRGCRGVRCAADIVGQCPAKLKAPGGGCNDACTVFQTSEYCCTTGKCGPTEYSRFFKRLCPDAFSYVLDKPTTVTCPGSSNYRVTFCPTA
modifications: Eight disulfides
notes: sweet-tasting plant protein, E957

Biological target: T1, human TAS1R2-I595T/TAS1R3-WT
Experiment: Calcium mobilisation assay, TAS1R2 variant I595T with TAS1R3-WT
Type: cell-based
Conditions: "-": no activation; for Max ΔF/F0: maximal signal amplitude
Text: The coding sequences for TAS1R2 and TAS1R3 were commercially synthesised, and the human codon was optimised for expression in human cells. The coding sequences of human TAS1R2 and TAS1R3 were subcloned and inserted into the mammalian expression vectors pcDNA6/myc-HisA and pcDNA4/myc-HisA (Invitrogen; Thermo Fisher Scientific; Illkirch, France) between the EcoRI and NotI restriction sites, generating the plasmids pcDNA6-TAS1R2 and pcDNA4-TAS1R3, respectively. To increase protein expression in mammalian cells, an upstream start codon was used, which was a sequence called MAX, corresponding to the QBI SP163 element also described in pcDNA4-HisMax (Invitrogen; Thermo Fisher Scientific; Illkirch, France). To measure the expression level of the receptor by immunohistochemistry, we used the FLAG sequence ([…]) in the C-terminal position, which encodes the FLAG tag epitope. SNP variants of TAS1R2 and TAS1R3 were constructed based on […], respectively, using site-directed mutagenesis (Genewiz; Leipzig, Germany).
The HEK293T cells were kindly provided by Jay P. Slack (Givaudan Flavors Corporation; Cincinnati, OH, USA). HEK293T cells stably transfected with Gα16gust44 [43, 67] were seeded in poly-D-lysine-coated clear-bottom black 96-well plates (0.35 × 10^5 cells/well) in high-glucose DMEM supplemented with 2 mM GlutaMAX, 10% dialysed foetal bovine serum with penicillin/streptomycin and G418 (400 μg/mL) at 37 °C and 6.3% CO2 in a humidified atmosphere as previously reported. […] As a negative control, HEK293T cells were mock-transfected with the empty expression vector. After a further 24 h of incubation, the HEK293T cells were washed with C1 buffer (130 mM NaCl, 5 mM KCl, 10 mM HEPES pH 7.4 and 2 mM CaCl2). The 96-well plates containing the cells were then stimulated with sweet-tasting compounds. […] Different concentration ranges were tested depending on the sweet compound injected. The Ca^2+ changes were expressed as fractional changes in fluorescent light intensity: ΔF/F = (F − F0)/F0, where F was the fluorescent light intensity at each point, and F0 was the value of emitted fluorescent light prior to stimulus application. To calculate dose–response relationships, the changes in fluorescence upon stimulus application were averaged, mock-subtracted and baseline-corrected. The dose–response data obtained were adjusted using a 4-parameter logistic equation. The half-maximal effective concentrations (EC50 values) and maximal signal amplitudes were calculated using SigmaPlot software (version 15.0) (Systat Software; San Jose, CA, USA).
For in vitro calcium mobilisation assay performed on hTAS1R2-SNPs, hTAS1R3-SNPs and mTAS1R3-I60T, 6 to 7 concentrations were tested for each sweet compound, plus buffer alone. All concentration–receptor combinations were measured in duplicate, and each experiment was repeated at least 4 times (8 wells/concentration). Results were expressed for each concentration as ΔF/F mean ± SEM and represented as dose–response curves.

| Molecule | EC50 [µM] | R1 = Variant EC50/WT EC50 | Max ΔF/F0 |
| --- | --- | --- | --- |
| CC1=CC(=O)NS(=O)(=O)O1 [Acesulfame K, acesulfame K] | 300 ± 139 | 0.4 | 0.02 ± 0.01 |
| O=S(=O)(O)NC1CCCCC1 [Cyclamate, cyclamate] | 2030 ± 102 | – | – |
| C[C@H](CC[C@@H](O[C@@H]1O[C@H](CO[C@@H]2O[C@H](CO)[C@@H](O)[C@H](O)[C@H]2O)[C@@H](O)[C@H](O)[C@H]1O[C@@H]1O[C@H](CO)[C@@H](O)[C@H](O)[C@H]1O)C(C)(C)O)[C@H]1CC[C@@]2(C)[C@@H]3CC=C4[C@@H](CC[C@H](O[C@@H]5O[C@H](CO[C@@H]6O[C@H](CO)[C@@H](O)[C@H](O)[C@H]6O)[C@@H](O)[C@H](O)[C@H]5O)C4(C)C)[C@]3(C)[C@H](O)C[C@]12C [Mogroside V, mogroside V] | 31.4 ± 6 | 1.8 | 0.27 ± 0.03 |
| COc1ccc(CCC(=O)c2c(O)cc(O[C@@H]3O[C@H](CO)[C@@H](O)[C@H](O)[C@H]3O[C@@H]3O[C@@H](C)[C@H](O)[C@@H](O)[C@H]3O)cc2O)cc1O [NHDC, neohesperidin dihydrochalcone] | 70.3 ± 1.3 | 0.9 | 0.09 ± 0.01 |
| COC(=O)[C@H](Cc1ccccc1)NC(=O)[C@H](CC(=O)O)NCCC(C)(C)C [Neotame] | 1.27 ± 0.18 | 1.5 | 0.09 ± 0.01 |
| C=C(C)[C@@H]1CC=C(/C=N/O)CC1 [Perillartine, perillartine] | 53.2 ± 1.6 | 3.0 | 0.51 ± 0.01 |
| C=C1C[C@@]23CC[C@H]4[C@@](C)(CCC[C@@]4(C)C(=O)O[C@@H]4O[C@H](CO)[C@@H](O)[C@H](O[C@@H]5O[C@H](CO)[C@@H](O)[C@H](O)[C@H]5O)[C@H]4O[C@@H]4O[C@H](CO)[C@@H](O)[C@H](O)[C@H]4O)[C@@H]2CC[C@]1(O[C@@H]1O[C@H](CO)[C@@H](O)[C@H](O[C@@H]2O[C@H](CO)[C@@H](O)[C@H](O)[C@H]2O)[C@H]1O[C@@H]1O[C@H](CO)[C@@H](O)[C@H](O)[C@H]1O)C3 [Rebaudioside M, rebaudioside M] | 35.8 ± 4 | 2.1 | 0.23 ± 0.01 |
| OC[C@H]1O[C@H](O[C@]2(CCl)O[C@H](CCl)[C@@H](O)[C@@H]2O)[C@H](O)[C@@H](O)[C@H]1Cl [Sucralose] | 108 ± 5 | 1.2 | 0.08 ± 0.02 |
| brazzein (QDKCKKVYENYPVSKCQLANQCNYDCKLDKHARSGECFYDEKRNLQCICDYCEY; ends and bridges not checked; cysteine pairing not given here; UniProt P56552 1-54, looked up) [sweet-tasting protein obtained by recombinant production using the yeast Pichia pastoris] | – | 10.8 | 0.13 ± 0.02 |
| thaumatin | – | 3.7 | 0.39 ± 0.01 |
| B1 | 27.8 ± 1.4 | – | – |
